Reference: US6727263B2, “Indole and 2,3-dihydroindole derivatives, their preparation and use” (H. Lundbeck A/S, priority 1997, dated 2004)
Read-outs that look alike come from different tables or passages of the source.

Key:
human 5-HT1A receptors = molecular target: T1, human 5-HT1A receptors (Homo sapiens, UniProt P08908); assay: Inhibition of 3H-5-CT binding to human 5-HT1A receptors
T1 construct: expressed in transfected cells; host or cells: HeLa cells (HA7), used as cell homogenate
T1 sequence (P08908 1-422): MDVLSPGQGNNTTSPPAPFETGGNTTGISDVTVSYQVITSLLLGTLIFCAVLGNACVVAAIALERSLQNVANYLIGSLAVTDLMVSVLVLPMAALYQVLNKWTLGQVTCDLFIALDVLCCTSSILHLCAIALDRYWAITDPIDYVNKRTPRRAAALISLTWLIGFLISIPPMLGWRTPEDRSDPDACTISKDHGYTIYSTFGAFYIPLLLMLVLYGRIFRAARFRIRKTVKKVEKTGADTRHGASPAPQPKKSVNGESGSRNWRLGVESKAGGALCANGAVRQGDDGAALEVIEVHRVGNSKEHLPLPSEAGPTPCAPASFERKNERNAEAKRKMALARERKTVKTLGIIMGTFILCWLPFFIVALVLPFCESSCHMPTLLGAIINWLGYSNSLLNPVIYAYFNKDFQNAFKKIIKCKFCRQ
Description: Inhibition of ^3H-5-CT Binding to Human 5-HT1A Receptors
Human 5-HT1A receptors (40 μg of cell homogenate) were incubated for 15 minutes at 37° C. in 50 mM Tris buffer at pH 7.7 in the presence of ^3H-5-CT. Non-specific binding was determined by including 10 μM of metergoline. The reaction was terminated by rapid filtration through Unifilter GF/B filters on a Tomtec Cell Harvester. Filters were counted in a Packard Top Counter.

[1] = system: 3H-5-HT uptake into whole rat brain synaptosomes; assay: Inhibition of 3H-5-HT uptake into rat brain synaptosomes; type: biochemical; settings: 3H-5-HT accumulation into whole rat brain synaptosomes, in vitro; read-out: Inhibition of serotonin reuptake IC50
Description: Inhibition of ^3H-5-HT Uptake Into Rat Brain Synaptosomes
Using this method the ability of drugs to inhibit the accumulation of ^3H-5-HT into whole rat brain synaptosomes is determined in vitro.

cloned 5-HT1A receptors = molecular target: T2, cloned 5-HT1A receptors (Homo sapiens, UniProt P08908); assay: Antagonism of 5-HT induced inhibition of forskolin induced cAMP accumulation; type: cell-based; settings: cloned 5-HT1A receptors in transfected HeLa cells (HA7)
T2 construct: expressed in transfected cells; host or cells: HeLa cells (HA7)
T2 sequence (P08908 1-422): T1 sequence (P08908 1-422)
Description: The assay was performed as a modification of the method described by Pauwels, P. J et al, Biochem. Pharmacol. 1993, 45, 375.

[2] = cloned human 5-HT1A receptors expressed in transfected HeLa cells (HA7), cell homogenate, 15 minutes at 37° C., pH 7.7

Row | Compound | IC50 (human 5-HT1A receptors) [nM] | IC50 [1] [nM] | IC50 (cloned 5-HT1A receptors) [nM] | melting point [°C] | IC50 (human 5-HT1A receptors; read-out: Inhibition of 3H-5-CT binding IC50, cloned human 5-HT1A receptors expressed in transfected HeLa cells (HA7), cell homogenate, 15 minutes at 37° C., pH 7.7) [nM] | IC50 (human 5-HT1A receptors; [2]) [nM]
1 | Brc1ccc2[nH]cc(CCN3CCN(c4cccc5c4OCCO5)CC3)c2c1.O=C(O)C(=O)O [Compound 1b, 3-[2-[4-(1,4-Benzodioxan-5-yl)piperazin-1-yl]ethyl]-5-bromo-1H-indole oxalate] | 7.2 | 2.8 | 5000 | 236 to 240 | – | –
2 | Clc1cccc2[nH]cc(CCN3CCN(c4cccc5c4OCCO5)CC3)c12.O=C(O)C(=O)O [Compound 1e, 3-[2-[4-(1,4-Benzodioxan-5-yl)piperazin-1-yl]ethyl]-4-chloro-1H-indole oxalate] | 11 | 0.25 | 2400 | 210 to 218 | – | –
3 | Fc1ccc2[nH]cc(CCN3CCN(c4cccc5c4OCCO5)CC3)c2c1.O=C(O)C(=O)O [Compound 1h, 3-[2-[4-(1,4-Benzodioxan-5-yl)piperazin-1-yl]ethyl]-5-fluoro-1H-indole oxalate] | 4.6 | 1.7 | 280 | 224 to 226 | – | –
4 | Clc1ccc2[nH]cc(CCN3CCN(c4cccc5c4OCC5)CC3)c2c1.O=C(O)C(=O)O [Compound 1n, 5-Chloro-3-[2-[4-(2,3-dihydrobenzofuran-7-yl)piperazin-1-yl]ethyl]-1H-indole oxalate] | 8.2 | 2.1 | 1900 | 134 to 138 | – | –
5 | Clc1ccc2c(CCN3CC=C(c4cccc5c4OCCO5)CC3)c[nH]c2c1.O=C(O)C(=O)O [Compound 1v, 3-[2-[4-(1,4-Benzodioxan-5-yl)-1,2,3,6-tetrahydropyridin-1-yl]ethyl]-6-chloro-1H-indole oxalate] | 0.81 | 0.85 | 3300 | 240 to 247 | – | –
6 | c1cc2c(c(N3CCN(CCc4c[nH]c5ccccc45)CC3)c1)OCCO2 [Compound 2a, 3-[2-[4-(1,4-Benzodioxan-5-yl)Piperazin-1-yl]Ethyl]-1H-Indole Hemifumarate] | – | 3.5 | 160 | – | 2.9 | –
7 | CC(=O)N1CC(CCN2CCN(c3cccc4c3OCCO4)CC2)c2ccccc21 (centres unmarked) [Compound 2b] | – | 12 | 250 | 119 to 120 | – | 13
8 | CC1(C)CCc2cc(Cl)cc(N3CCN(CCc4c[nH]c5cc(Cl)ccc45)CC3)c2O1.O=C(O)/C=C/C(=O)O [Compound 3d, 6-Chloro-3-[2-[4-(6-chloro-2,2-dimethyl-3,4-dihydro-2H-1-benzopyran-8-yl)piperazin-1yl]ethyl]-1H-indole fumarate] | 21 | 15 | 2300 | 224 to 225 | – | –
9 | Clc1ccc2c(c1)NCC2CCN1CCN(c2cccc3c2OCCO3)CC1.O=C(O)C(=O)O (centres unmarked) [Compound 4d, 3-[2-[4-(1,4-Benzodioxan-5-yl)piperazin-1-yl]ethyl]-6-chloro-2,3-dihydro-1H-indole oxalate] | – | 4.3 | 890 | 185 to 188 | – | 14
